# Reference: patent publication US8241862B2, “Perinucleolar compartment as a cancer marker” (Northwestern University, priority 2002, dated 2012)
# *1 amine or outer side, *2 acyl side, *3 side chain or, on linkers, in order; H or OH if unused. Where a SMILES comes first, the peptide text is derived from it. Bridges are numbered along the chain shown (N, C = ends). Roman numbers before positions name the chains, in order. [ ]: non-standard residue; d: D form. Actinocin(9to1) = Cc1c2oc3c(C)ccc(C(=O)[*:1])c3nc-2c(C(=O)[*:2])c(N)c1=O; NMeV = CN[C@H](C(=O)O)C(C)C; Sar = CNCC(=O)O
# Test system: HeLa cells
# Test: Effect of chemotherapeutic drugs on PNC prevalence in cultured HeLa cells
# Type: cell-based, human
# Experimental: Cultured HeLa cells, whose PNC prevalence is above 95%, were treated with various chemotherapeutic drugs.
compound,measurement,setting,value
N.N.[Cl][Pt][Cl] [Cisplatin],Effect on PNC (cell negative for PNC),"0.5 μg/ml, 5 hours",95% cell negative for PNC
CN(Cc1cnc2nc(N)nc(N)c2n1)c1ccc(C(=O)N[C@@H](CCC(=O)O)C(=O)O)cc1 [Methotrexate],Effect on PNC (cells negative for PNC),"0.5 μg/ml, 16 hours",30% cells negative for PNC
same,Effect on PNC (cells negative for PNC),"1.0 μg/ml, 16 hours",60% cells negative for PNC
same,Effect on PNC (cells negative for PNC),"2.5 μg/ml, 16 hours",80% cells negative for PNC
same,Response of PNC prevalence to dose,"0.5 to 2.5 μg/ml, 16 hours",dose-dependent
NC(=O)NO [Hydroxyurea],Effect on PNC,"0.5 to 1.5 μM, 16 hours",No effect on PNC structure
COc1cccc2c1C(=O)c1c(O)c3c(c(O)c1C2=O)C[C@@](O)(C(=O)CO)C[C@@H]3O[C@H]1C[C@H](N)[C@H](O)[C@H](C)O1 [Adriamycin],Effect on PNC,"5 to 40 μM, 16 hours",No effect on PNC structure
"Cc1c2oc3c(C)ccc(C(=O)N[C@@H]4C(=O)N[C@H](C(C)C)C(=O)N5CCC[C@H]5C(=O)N(C)CC(=O)N(C)[C@@H](C(C)C)C(=O)O[C@@H]4C)c3nc-2c(C(=O)N[C@@H]2C(=O)N[C@H](C(C)C)C(=O)N3CCC[C@H]3C(=O)N(C)CC(=O)N(C)[C@@H](C(C)C)C(=O)O[C@@H]2C)c(N)c1=O [Actinomycin D] (I: T[dV]P[Sar][NMeV] / II: T[dV]P[Sar][NMeV]; ester I:1-I:C, II:1-II:C; linker I:N-II:N via Actinocin(9to1))",Effect on PNC (cell negative for PNC),"0.04 μg/ml, 2 hours",100% cell negative for PNC
CC[C@@]1(O)C(=O)OCc2c1cc1n(c2=O)Cc2cc3ccccc3nc2-1 [Campothecin],Effect on PNC (cell negative for PNC),"1.25 to 2.5 μg/ml, 1 hour",100% cell negative for PNC
CC(=O)O[C@H]1C(=O)[C@@]2(C)[C@H]([C@H](OC(=O)c3ccccc3)[C@]3(O)C[C@H](OC(=O)[C@H](O)[C@@H](NC(=O)c4ccccc4)c4ccccc4)C(C)=C1C3(C)C)[C@]1(OC(C)=O)CO[C@@H]1C[C@@H]2O [Paclitaxel],Effect on PNC,"5 to 40 μM, 16 hours",No effect on PNC structure
CC[C@]1(O)C[C@H]2CN(CCc3c([nH]c4ccccc34)[C@@](C(=O)OC)(c3cc4c(cc3OC)N(C=O)[C@H]3[C@@](O)(C(=O)OC)[C@H](OC(C)=O)[C@]5(CC)C=CCN6CC[C@]43[C@@H]65)C2)C1 [Vincristine],Effect on PNC,"5 to 40 μM, 16 hours",No effect on PNC structure
COc1cc(NS(C)(=O)=O)ccc1Nc1c2ccccc2nc2ccccc12 [AMSA],Effect on PNC,"5 to 40 μM, 16 hours",No effect on PNC structure
O=c1[nH]cc(F)c(=O)[nH]1 [5′-fluorouracil],Effect on PNC,"1 to 5 μg/ml, 16 hours",No effect on PNC structure
Nc1ccn([C@@H]2O[C@H](CO)[C@@H](O)[C@@H]2O)c(=O)n1 [Cytosine Arabinoside],Effect on PNC,"10 to 40 μg/ml, 16 hours",No effect on PNC structure
